Reference: PubChem BioAssay AID1963830 (Molecular Pharmacology Branch, DTP, NCI, 2024)

System: 922993-354-T-J3-PDC complex spheroid viability
Assay: Anticancer human tumor 922993-354-T-J3-PDC patient-derived endometrial carcinoma cell line growth inhibition [POLQ]
Settings: for IC50: curve of first compound; for viability, T/C: stronger effect = lower value
Protocol: Multicellular complex tumor spheroid response to Polymerase (POL) inhibitors (novobiocin, ART-558, RP6685) in combination with a variety of drugs and investigational agents in selected tumor cell lines
The POL inhibitors (novobiocin, ART-558, and RP6685) were evaluated both individually and in combination with standard of care and investigational anticancer small molecules within a complex spheroid model of solid tumors. . Complex spheroids include a stromal component modeled by human endothelial cells (HUVEC) and fibroblasts modeled by human mesenchymal stem cells (MSCs). The concentration ranges selected for each drug and investigational agent were based upon clinically achievable concentrations if the clinical Cmax of the agent was known.
Compounds. The drugs and investigational agents: novobiocin (NSC847541), ART-558 (NSC835418), RP-6685 (NSC848927), peposertib (NSC802822), ceralasertib (NSC780249), elimusertib (NSC800525), camonsertib (NSC841442), AZD-1390 (NSC803789), olaparib (NSC753686), talazoparib (NSC767125), rucaparib (NSC756644), sotorasib (NSC818433), MRTX-1133 (NSC836407), SN-38 (NSC673596), topotecan (NSC609699), epotoside (NSC141540), doxorubicin (NSC123127), gemcitabine (NSC613327), 5-fluorouracil (NSC19893), paclitaxel (NSC125973), vemurafenib (NSC761431), MSA-2 (NSC828583), SN-011 (NSC837082), adavosertib (NSC754352), prexasertib (NSC758257), carboplatin (NSC241240) and oxaliplatin (NSC266046), were obtained from the National Cancer Institute (NCI) Developmental Therapeutics Program Chemical Repository (21). The FDA-approved anticancer drug set is available from the Developmental Therapeutics Program at https://dtp.cancer.gov/organization/dscb/obtaining/. […] The stock solutions were prepared in dimethyl sulfoxide (DMSO, Sigma-Aldrich, St. Louis, MO, cat. D2650), except for the platinum compounds which were prepared in saline (Quality Biological, Gaithersburg, MD, cat. 114-055-101), at 800-fold the tested concentration and stored at -70 degrees C prior to their use. All drugs and investigational agents were tested over a range starting from a high concentration at or near the clinical Cmax and decreasing in half-log increments. If the clinical Cmax for an agent had not been determined, the highest concentration tested was 10 microM, except for SN-38, which was tested at a high concentration of 1 microM.
Cell Culture. All cells were maintained in an incubator at 37 degrees C and 5% CO2 with 95% humidity. The PDC lines were cultured according to standard operating procedures established by the NCI PDMR (https://pdmr.cancer.gov). Table 3 of the manuscript, lists the cell lines along with the number of the three cell types plated to form the mct-spheroids and media for tumor cell growth. After thawing, all PDC lines, except 997537-175-T-J1-PDC and 415267-285-R-J2-PDC, were cultured in Matrigel-coated flasks prepared with a working solution of 1X Ham's F-12 nutrient mix, without supplementation (Thermo Fisher Scientific, cat. 11765054), 100 U/mL penicillin-streptomycin (Thermo Fisher Scientific, cat. 15140122), and 2.5% Matrigel (Corning Inc., Corning, NY, cat. 354248) for the first three passages. The two PDC lines 997537-175-T-J1-PDC and 415267-285-R-J2-PDC were cultured on uncoated flasks. The 857933-349-R-J2-PDC line was cultured in 6C/Colon 1B media containing advanced DMEM/F-12 (Thermo Fisher Scientific, cat. 12634028), 10 mM HEPES (Thermo Fisher Scientific, cat. 15630080), 1X GlutaMAX supplement (Thermo Fisher Scientific, cat. 35050061), 0.1 mg/mL primocin (InvivoGen, San Diego, CA, cat. ant-pm-2), 10% defined fetal bovine serum, heat inactivated (HyClone Laboratories Inc., Logan, UT, cat. SH30070.03HI), 50% L-WRN conditioned media (ATCC, cat. CRL-3276), 1.25 mM N-Acetyl-L-cysteine (Sigma-Aldrich, cat. A9165), 10 mM nicotinamide (Sigma-Aldrich, cat. N0636), 1X B-27 supplement (Thermo Fisher Scientific, cat. 17504044), 1X N-2 supplement (Thermo Fisher Scientific, cat. […]
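Also: spheroids exposed to the agents for one week.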
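For viability, T/C in this document: 100% = DMSO vehicle control wells.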

Work on COc1cc(C2c3cc4c(cc3C(OC3OC5COC(C)OC5C(O)C3O)C3COC(=O)C23)OCO4)cc(OC)c1O (configuration not stated) + COC1C(OC(N)=O)C(O)C(Oc2ccc3c(O)c(NC(=O)c4ccc(O)c(CC=C(C)C)c4)c(=O)oc3c2C)OC1(C)C yielded an IC50 (second compound 0.0316 µM) of 5.98 µM, an IC50 (second compound 0.1 µM) of 7.74 µM and an IC50 (second compound 0.316 µM) of 8.38 µM. It also gave an IC50 (second compound 1 µM) of 7 µM, an IC50 (second compound 3.16 µM) of 7.13 µM and an IC50 (second compound 10 µM) of 7.81 µM. The viability, T/C (second compound 0.0316 µM, first compound 0.0316 µM) was 98%, the viability, T/C (second compound 0.0316 µM, first compound 0.1 µM) was 91% and the viability, T/C (second compound 0.0316 µM, first compound 0.316 µM) was 100%. The viability, T/C (second compound 0.0316 µM, first compound 1 µM) was 98.6%, the viability, T/C (second compound 0.0316 µM, first compound 3.16 µM) was 74.1% and the viability, T/C (second compound 0.0316 µM, first compound 10 µM) was 30.7%. It also gave a viability, T/C (second compound 0.1 µM, first compound 0.0316 µM) of 99.7%, a viability, T/C (second compound 0.1 µM, first compound 0.1 µM) of 89.4% and a viability, T/C (second compound 0.1 µM, first compound 0.316 µM) of 93.9%. The viability, T/C (second compound 0.1 µM, first compound 1 µM) was 88.3%, the viability, T/C (second compound 0.1 µM, first compound 3.16 µM) was 72.9% and the viability, T/C (second compound 0.1 µM, first compound 10 µM) was 43.2%. The viability, T/C (second compound 0.316 µM, first compound 0.0316 µM) was 107%, the viability, T/C (second compound 0.316 µM, first compound 0.1 µM) was 97.7% and the viability, T/C (second compound 0.316 µM, first compound 0.316 µM) was 106%. It also gave a viability, T/C (second compound 0.316 µM, first compound 1 µM) of 90%, a viability, T/C (second compound 0.316 µM, first compound 3.16 µM) of 69.6% and a viability, T/C (second compound 0.316 µM, first compound 10 µM) of 46.4%. The viability, T/C (second compound 1 µM, first compound 0.0316 µM) was 96.2%, the viability, T/C (second compound 1 µM, first compound 0.1 µM) was 93.8% and the viability, T/C (second compound 1 µM, first compound 0.316 µM) was 91.9%. The viability, T/C (second compound 1 µM, first compound 1 µM) was 89.2%, the viability, T/C (second compound 1 µM, first compound 3.16 µM) was 72.9% and the viability, T/C (second compound 1 µM, first compound 10 µM) was 39.5%. It also gave a viability, T/C (second compound 3.16 µM, first compound 0.0316 µM) of 99.7%, a viability, T/C (second compound 3.16 µM, first compound 0.1 µM) of 97.7% and a viability, T/C (second compound 3.16 µM, first compound 0.316 µM) of 89.2%. It also gave a viability, T/C (second compound 3.16 µM, first compound 1 µM) of 88.6%, a viability, T/C (second compound 3.16 µM, first compound 3.16 µM) of 81.8% and a viability, T/C (second compound 3.16 µM, first compound 10 µM) of 37.1%. The viability, T/C (second compound 10 µM, first compound 0.0316 µM) was 72.1%, the viability, T/C (second compound 10 µM, first compound 0.1 µM) was 84.5% and the viability, T/C (second compound 10 µM, first compound 0.316 µM) was 89.4%. The viability, T/C (second compound 10 µM, first compound 1 µM) was 76.1%, the viability, T/C (second compound 10 µM, first compound 3.16 µM) was 85.1% and the viability, T/C (second compound 10 µM, first compound 10 µM) was 41.6%.
